Here are results for 4 molecules from article PMC10504751, “Chalcone/1,3,4-Oxadiazole/Benzimidazole hybrids as novel anti-proliferative agents inducing apoptosis and inhibiting EGFR & BRAFV^600E” (BMC Chemistry, 2023).

Experiment [1] has as its system SNB-19. In words: NCI one-dose SRB anti-proliferative screen. Format: cell-based. Conditions: Homo sapiens, read-out: Cell growth inhibition %. A digest of the protocol:
(§1)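 SRB-based colorimetric growth readout; compounds dosed once at 10 µM.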

In experiment [2] the test system is CAKI-1. In words: NCI one-dose SRB anti-proliferative screen. Format: cell-based. Conditions: Homo sapiens, read-out: Cell growth inhibition %. The procedure, abridged: as §1
Experiment [3] has as its system HS 578T. In words: NCI one-dose SRB anti-proliferative screen. Format: cell-based. To be noted: Homo sapiens, read-out: Cell growth inhibition %. The procedure, abridged: as §1
Experiment [4] has as its system IGROV1. In words: NCI one-dose SRB anti-proliferative screen. Format: cell-based. To be noted: Homo sapiens, IGROV-1, read-out: Cell growth inhibition %. The procedure, abridged:
as §1

Experiment [5] deals with SNB-75. In words: NCI one-dose SRB anti-proliferative screen. Format: cell-based. Conditions: Homo sapiens, read-out: Cell growth inhibition %. The procedure, abridged: as §1
In experiment [6] the test system is SF-295. In words: NCI one-dose SRB anti-proliferative screen. Format: cell-based. Conditions: Homo sapiens, read-out: Cell growth inhibition %. A digest of the protocol: as §1
In experiment [7] the test system is HOP-92. In words: NCI one-dose SRB anti-proliferative screen. Format: cell-based. To be noted: Homo sapiens, read-out: Cell growth inhibition %. The procedure, abridged: as §1
The subject of experiment [8] is RPMI-8226. In words: NCI one-dose SRB anti-proliferative screen. To be noted: Homo sapiens, read-out: Cell growth inhibition %. Format: cell-based. The procedure, abridged: as §1
Experiment [9] concerns MDA-MB-468. In words: NCI one-dose SRB anti-proliferative screen. Format: cell-based. To be noted: Homo sapiens, read-out: Cell growth inhibition %. The procedure, abridged:
as §1

In experiment [10] the test system is NCI-H460. In words: NCI one-dose SRB anti-proliferative screen. Format: cell-based. To be noted: Homo sapiens, read-out: Cell growth inhibition %. The procedure, abridged:
as §1

The test system of experiment [11] is SF-268. In words: NCI one-dose SRB anti-proliferative screen. Conditions: Homo sapiens, read-out: Cell growth inhibition %. Format: cell-based. A digest of the protocol: as §1
Experiment [12] deals with HT29. In words: NCI one-dose SRB anti-proliferative screen. Format: cell-based. To be noted: Homo sapiens, HT-29, read-out: Cell growth inhibition %. A digest of the protocol:
as §1

In experiment [13] the test system is T-47D. In words: NCI one-dose SRB anti-proliferative screen. Format: cell-based, human. Conditions: Homo sapiens, T47D, read-out: Cell growth inhibition %. A digest of the protocol:
as §1

The test system of experiment [14] is RXF 393. In words: NCI one-dose SRB anti-proliferative screen. Format: cell-based, human. Conditions: Homo sapiens, read-out: Cell growth inhibition %. The procedure, abridged: as §1
The subject of experiment [15] is HCT-116. In words: NCI one-dose SRB anti-proliferative screen. Format: cell-based, human. Conditions: for inhibition at 10 µM: Homo sapiens, read-out: Cell growth inhibition %; for Growth Percent: 10 µM one dose. A digest of the protocol: as §1
Experiment [16] relates to K-562. In words: NCI one-dose SRB anti-proliferative screen. Format: cell-based, human. To be noted: for inhibition at 10 µM: Homo sapiens, K562, read-out: Cell growth inhibition %. The procedure, abridged: as §1
Experiment [17] concerns MOLT-4. In words: NCI one-dose SRB anti-proliferative screen. Format: cell-based, human. Conditions: Homo sapiens, read-out: Cell growth inhibition %. The procedure, abridged:
as §1

Experiment [18] deals with Panc-1. In words: Propidium iodide anti-proliferative assay. To be noted: Homo sapiens, 48 h incubation, read-out: IC50 ± SEM Panc-1. Format: cell-based. The procedure, abridged:
(§2)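 Cells seeded at 3000-7500 cells/well and grown 24 h at 37 °C, then treated with compounds (10 µM in 0.1% DMSO, triplicate; IC50 runs at varied concentrations) for 48 h. PI added, plates frozen 24 h at -80 °C and thawed, fluorescence read at 530/620 nm; % cytotoxicity versus 0.1% DMSO control.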

Experiment [19] deals with A-549. In words: Propidium iodide anti-proliferative assay. Format: cell-based. Conditions: Homo sapiens, A549; 48 h incubation; read-out: IC50 ± SEM A-549. The procedure, abridged: as §2
Experiment [20] relates to MCF-7. In words: Propidium iodide anti-proliferative assay. Format: cell-based. To be noted: Homo sapiens, MCF7; 48 h incubation; read-out: IC50 ± SEM MCF-7. A digest of the protocol:
as §2

Experiment [21] has as its system HT-29. In words: Propidium iodide anti-proliferative assay. Format: cell-based. Conditions: Homo sapiens, 48 h incubation, read-out: IC50 ± SEM HT-29. A digest of the protocol: as §2
Where [22] appears, read: SNB-19 (CNS Cancer), NCI one dose 10 µM.
Where [23] appears, read: CAKI-1 (Renal Cancer), NCI one dose 10 µM.
The mark [24] stands for this setting: HS 578T (Breast Cancer), NCI one dose 10 µM.
[25] abbreviates: IGROV1 (Ovarian Cancer), NCI one dose 10 µM.
[26] abbreviates: SNB-75 (CNS Cancer), NCI one dose 10 µM.
Setting [27] is: SF-295 (CNS Cancer), NCI one dose 10 µM.
The mark [28] stands for this setting: HOP-92 (Non-Small Cell Lung Cancer), NCI one dose 10 µM.
The mark [29] stands for this setting: RPMI-8226 (Leukemia), NCI one dose 10 µM.
Where [30] appears, read: MDA-MB-468 (Breast Cancer), NCI one dose 10 µM.
[31] abbreviates: NCI-H460 (Non-Small Cell Lung Cancer), NCI one dose 10 µM.
Where [32] appears, read: SF-268 (CNS Cancer), NCI one dose 10 µM.
The mark [33] stands for this setting: HT29 (Colon Cancer), NCI one dose 10 µM.
Where [34] appears, read: T-47D (Breast Cancer), NCI one dose 10 µM.
The mark [35] stands for this setting: RXF 393 (Renal Cancer), NCI one dose 10 µM.
Setting [36] is: HCT-116 (Colon Cancer), NCI one dose 10 µM.
[37] abbreviates: K-562 (Leukemia), NCI one dose 10 µM.
Where [38] appears, read: MOLT-4 (Leukemia), NCI one dose 10 µM.
Setting [39] is: SNB-19, CNS Cancer, NCI one dose.
Setting [40] is: CAKI-1, Renal cancer, NCI one dose.
The mark [41] stands for this setting: HS 578T, Breast cancer, NCI one dose.
Where [42] appears, read: IGROV1, Ovarian Cancer, NCI one dose.
The mark [43] stands for this setting: SNB-75, CNS Cancer, NCI one dose.
Setting [44] is: SF-295, CNS Cancer, NCI one dose.
Setting [45] is: HOP-92, Non-Small Cell Lung Cancer, NCI one dose.
Where [46] appears, read: RPMI-8226, Leukemia, NCI one dose.
[47] abbreviates: MDA-MB-468, Breast cancer, NCI one dose.
Where [48] appears, read: NCI-H460, Non-Small Cell Lung Cancer, NCI one dose.
Setting [49] is: SF-268, CNS Cancer, NCI one dose.
Where [50] appears, read: HT29, Colon cancer, NCI one dose.
Setting [51] is: T-47D, Breast cancer, NCI one dose.
Where [52] appears, read: RXF 393, Renal cancer, NCI one dose.
Where [53] appears, read: HCT-116, Colon cancer, NCI one dose.

Like-named read-outs stand apart in the source and are kept apart here.

Turning to `COc1ccc(-c2nc3cc(-c4nnc(SCC(=O)Nc5ccc(C(=O)/C=C/c6ccc(Cl)cc6)cc5)o4)ccc3[nH]2)cc1OC` [Compound 7q, 2-{5-[2-(3,4-Dimethoxyphenyl)-1 H-benzo[d]imidazol-5-yl]-1,3,4-oxadiazol-2-ylthio}-N-{4-[(E)-3-(4-chlorophenyl)acryloyl]phenyl}acetamide], the inhibition (commonly the relative decrease from the control value, in per cent) at 10 µM worked out at 0% in experiment [1] (setting [22]); 0% in experiment [2] (setting [23]); 3.98% in [3] (setting [24]); 8.1% in experiment [4] (setting [25]); 0% in experiment [5] (setting [26]); 1.96% in experiment [6] (setting [27]). Besides, the inhibition at 10 µM in experiment [7] (setting [28]) was 0%; in experiment [8] (setting [29]), 24.5%; in experiment [9] (setting [30]), 0%; in [10] (setting [31]), 0%; in [11] (setting [32]), 0%; in [12] (setting [33]), 0%. The inhibition at 10 µM stood at 10.6% in experiment [13] (setting [34]); 0% in experiment [14] (setting [35]); 0% in [15] (setting [36]); 7.27% in experiment [16] (setting [37]); 24.2% in experiment [17] (setting [38]). The half-maximal inhibitory concentration (IC50) – broadly, the concentration at which inhibition is half-maximal – was 3.8 ± 0.5 µM in experiment [18], 3.4 ± 0.4 µM in experiment [19], 3.02 ± 0.3 µM in experiment [20] and 3.7 ± 0.5 µM in experiment [21].

As for `COc1ccc(-c2nc3cc(-c4nnc(SCC(=O)Nc5ccc(C(=O)/C=C/c6cc(OC)c(OC)c(OC)c6)cc5)o4)ccc3[nH]2)cc1` [Compound 7o, 2-{5-[2-(4-Methoxyphenyl)-1 H-benzo[d]imidazol-5-yl]-1,3,4-oxadiazol-2-ylthio}-N-{4-[(E)-3-(3,4,5-trimethoxyphenyl)acryloyl]phenyl}acetamide], the inhibition at 10 µM was found to be 0% in experiment [1] (setting [39]); 1.83% in experiment [2] (setting [40]); 0% in experiment [3] (setting [41]); 0% in experiment [4] (setting [42]); 1.75% in experiment [5] (setting [43]); 0% in experiment [6] (setting [44]). Moreover, the inhibition at 10 µM in experiment [7] (setting [45]) worked out at 0%; in [8] (setting [46]) it was 23.2%; in experiment [9] (setting [47]), 0%; in experiment [10] (setting [48]), 0%; in experiment [11] (setting [49]) it was 0%; in experiment [12] (setting [50]), 0%. Further, the inhibition at 10 µM came to 0% in [13] (setting [51]); 0% in experiment [14] (setting [52]); 0% in experiment [15] (setting [53]); 8.26% in experiment [16] (K-562, Leukemia, NCI one dose); 9% in experiment [17] (MOLT-4, Leukemia, NCI one dose). In experiment [15] (HCT-116 (Colon Cancer)), the “Growth Percent” value amounted to 50.04%. In addition, the IC50 in experiment [18] amounted to 8.2 ± 1.2 µM; in experiment [19] it was 7.6 ± 0.3 µM; in [20], 7.1 ± 0.6 µM; in [21], 8.6 ± 0.4 µM.

Turning to `O=C(CSc1nnc(-c2ccc3[nH]c(-c4ccc(Cl)cc4)nc3c2)o1)Nc1ccc(C(=O)/C=C/c2ccccc2)cc1` [Compound 7f, 2-{5-[2-(4-Chlorophenyl)-1 H-benzo[d]imidazol-5-yl]-1,3,4-oxadiazol-2-ylthio}-N-{4-[(E)-3-phenylacryloyl]phenyl}acetamide], the inhibition at 10 µM in [1] (setting [22]) was found to be 0%; in experiment [2] (setting [23]), 1.83%; in experiment [3] (setting [24]), 0%; in experiment [4] (setting [25]), 0%; in experiment [5] (setting [26]) it was 1.75%; in experiment [6] (setting [27]), 0%. In addition, the inhibition at 10 µM was 0% in experiment [7] (setting [28]); 23.2% in experiment [8] (setting [29]); 0% in [9] (setting [30]); 0% in experiment [10] (setting [31]); 0% in experiment [11] (setting [32]); 0% in [12] (setting [33]). In addition, the inhibition at 10 µM is 0% in experiment [13] (setting [34]); 0% in [14] (setting [35]); 0% in experiment [15] (setting [36]); 8.26% in [16] (setting [37]); 9% in experiment [17] (setting [38]). Besides, the concentration for half-maximal inhibition (IC50) in [18] came out at 2.4 ± 0.6 µM; in [19], 2.15 ± 0.5 µM; in experiment [20] it was 2.05 ± 0.5 µM; in experiment [21], 2.7 ± 0.5 µM.

Consider `COc1ccc(-c2nc3cc(-c4nnc(SCC(=O)Nc5ccc(C(=O)/C=C/c6ccc(OC)c(OC)c6)cc5)o4)ccc3[nH]2)cc1` [Compound 7n, 2-{5-[2-(4-Methoxyphenyl)-1 H-benzo[d]imidazol-5-yl]-1,3,4-oxadiazol-2-ylthio}-N-{4-[(E)-3-(3,4-dimethoxyphenyl)acryloyl]phenyl}acetamide], for which the inhibition at 10 µM turned out to be 13.2% in experiment [1] (setting [39]); 1.11% in [2] (setting [40]); 7.35% in experiment [3] (setting [41]); 12.3% in experiment [4] (setting [42]); 22.1% in experiment [5] (setting [43]); 0% in experiment [6] (setting [44]). Also, the inhibition at 10 µM stood at 0% in [7] (setting [45]); 32.3% in experiment [8] (setting [46]); 10.7% in [9] (setting [47]); 8.91% in experiment [10] (setting [48]); 0.44% in experiment [11] (setting [49]); 0% in experiment [12] (setting [50]). Besides, the inhibition at 10 µM in [13] (setting [51]) turned out to be 15.4%; in experiment [14] (setting [52]), 31.5%; in experiment [15] (setting [53]), 42%; in experiment [16] (K-562, Leukemia, NCI one dose) it was 52.1%; in [17] (MOLT-4, Leukemia, NCI one dose) it was 35.7%. The “Growth Percent” value in [15] (HCT-116 (Colon Cancer)) was 57.96%; in [16] (K-562 (Leukemia), 10 µM one dose), 47%. The 50% inhibitory concentration (IC50) in experiment [18] stood at 2.05 ± 0.5 µM; in experiment [19], 1.9 ± 0.6 µM; in experiment [20], 1.65 ± 0.3 µM; in [21], 2.2 ± 0.6 µM.
